From patent publication US20250064789A1, “KETOAMIDE DERIVATIVES AND PHARMACEUTICAL USES THEREOF” (priority 2022, published 2025)

Target: recombinant SARS-CoV-2 M^pro (Severe acute respiratory syndrome coronavirus 2 (2019-nCoV) (SARS-CoV-2), UniProt P0DTD1)
Assay: Inhibition of SARS-CoV-2 M^pro enzyme activity (fluorescent substrate assay)
Format: biochemical
Conditions: inhibition of SARS-CoV-2 M^pro enzyme activity; values given in μM; read-out: IC50

| Compound | IC50 [µM] |
| --- | --- |
| CC(C)(C)[C@H](NC(=O)C(F)(F)F)C(=O)N[C@H](Cc1ccccc1)C(=O)C(=O)NCc1ccccn1 [Compound 245] | > 5 |

Same assay, conditions: inhibition of SARS-CoV-2 M^pro enzyme activity; values in nM; read-out: IC50

| Compound | IC50 [µM] |
| --- | --- |
| O=C(NCc1ccccn1)C(=O)[C@@H](Cc1ccccc1)NC(=O)C1(NC(=O)c2[nH]nc3c2COCC3)CCC1 [Compound 200] | 0.2193 ± 0.0006 |
| O=C(NCc1ccccn1)C(=O)[C@@H](Cc1ccccc1)NC(=O)C1(NC(=O)[C@H]2CC[C@H](c3ccc(Cl)cc3)CC2)CCC1 [Compound 201] | 0.6534 ± 0.0041 |
| O=C(NCc1ccccn1)C(=O)[C@@H](Cc1ccccc1)NC(=O)C1(NC(=O)[C@@H]2C[C@@H]3[C@H](C2)C3(F)F)CCC1 [Compound 202] | 0.0174 ± 0.0012 |
| O=C(NCc1ccccn1)C(=O)[C@@H](Cc1ccccc1)NC(=O)C1(NC(=O)C23CC4(F)CC(F)(CC(F)(C4)C2)C3)CCC1 [Compound 203] | 0.0196 ± 0.0006 |
| O=C(NCc1ccccn1)C(=O)[C@@H](Cc1ccccc1)NC(=O)C1(NC(=O)C2CC(F)(F)C2)CCC1 [Compound 204] | 0.0367 ± 0.0009 |
| O=C(NCc1ccccn1)C(=O)[C@@H](Cc1ccccc1)NC(=O)C1(NC(=O)C2CCC(O)(C(F)(F)F)CC2)CCC1 (stereo partly shown) [Compound 205] | 0.0239 ± 0.0009 |
| CC(C)[C@@H]1CC[C@@H](C)C[C@H]1OCC(=O)NC1(C(=O)N[C@H](Cc2ccccc2)C(=O)C(=O)NCc2ccccn2)CCC1 [Compound 206] | 0.018 ± 0.0005 |
| O=C(COC1CCCC1)NC1(C(=O)N[C@H](Cc2ccccc2)C(=O)C(=O)NCc2ccccn2)CCC1 [Compound 207] | 0.0461 ± 0.0009 |
| N#Cc1ccc(OCC(=O)NC2(C(=O)N[C@H](Cc3ccccc3)C(=O)C(=O)NCc3ccccn3)CCC2)cc1 [Compound 208] | 0.0371 ± 0.0017 |
| O=C(CC1CC(F)(F)C1)NC1(C(=O)N[C@H](Cc2ccccc2)C(=O)C(=O)NCc2ccccn2)CCC1 [Compound 209] | 0.0122 ± 0.0002 |
| O=C(CC1CCOCC1)NC1(C(=O)N[C@H](Cc2ccccc2)C(=O)C(=O)NCc2ccccn2)CCC1 [Compound 210] | 0.0207 ± 0.0011 |
| O=C(NCc1ccccn1)C(=O)[C@@H](Cc1ccccc1)NC(=O)C1(NC(=O)C2C3COCC32)CCC1 (stereo partly shown) [Compound 211] | 0.0577 ± 0.003 |
| CC1=NN=C(C)C1C(=O)NC1(C(=O)N[C@H](Cc2ccccc2)C(=O)C(=O)NCc2ccccn2)CCC1 [Compound 212] | 0.346 ± 0.0099 |
| O=C(CCC(F)(F)F)NC1(C(=O)N[C@H](Cc2ccccc2)C(=O)C(=O)NCc2ccccn2)CCC1 [Compound 213] | 0.0414 ± 0.0008 |
| O=C(NCc1ccccn1)C(=O)[C@@H](Cc1ccccc1)NC(=O)C1(NC(=O)C2CC3CCC2C3)CCC1 (stereo partly shown) [Compound 214] | 0.0174 ± 0.0005 |
| O=C(NCc1ccccn1)C(=O)[C@@H](Cc1ccccc1)NC(=O)C1(NC(=O)c2ccc(F)cc2)CCC1 [Compound 215] | 0.0137 ± 0.0009 |
| O=C(NCc1ccccn1)C(=O)[C@@H](Cc1ccccc1)NC(=O)[C@@H](Cc1ccccc1)NC(=O)[C@H]1CC[C@H](C(F)(F)F)CC1 [Compound 216] | 0.0163 ± 0.0004 |
| O=C(NCc1ccccn1)C(=O)[C@@H](Cc1ccccc1)NC(=O)[C@@H](Cc1ccccn1)NC(=O)C1CCC(F)(F)CC1 [Compound 217] | 0.0273 ± 0.0012 |
| O=C(NCc1ccccn1)C(=O)[C@@H](Cc1ccccc1)NC(=O)[C@@H](Cc1cccnc1)NC(=O)C1CCC(F)(F)CC1 [Compound 218] | 0.0234 ± 0.0008 |
| CC(C)C[C@@H](NC(=O)C1CCC(F)(F)CC1)C(=O)N[C@H](Cc1ccccc1)C(=O)C(=O)NCc1ccccn1 [Compound 219] | 0.0134 ± 0.0017 |

| Compound | IC50 [µM] |
| --- | --- |
| O=C(NCc1ccccn1)C(=O)[C@@H](Cc1ccccc1)NC(=O)[C@@H](CC1CCCCC1)NC(=O)C1CCC(F)(F)CC1 [Compound 220] | 0.0139 ± 0.0001 |
| CC[C@@H](C)[C@@H](NC(=O)C1CCC(F)(F)CC1)C(=O)N[C@H](Cc1ccccc1)C(=O)C(=O)NCc1ccccn1 [Compound 221] | 0.0156 ± 0.0012 |
| COC[C@@H](NC(=O)C1CCC(F)(F)CC1)C(=O)N[C@H](Cc1ccccc1)C(=O)C(=O)NCc1ccccn1 [Compound 222] | 0.0165 ± 0.0015 |
| O=C(NCc1ccccn1)C(=O)[C@@H](Cc1ccccc1)NC(=O)[C@H](NC(=O)C1CCC(F)(F)CC1)C1CCCCC1 [Compound 223] | 0.0111 ± 0.0003 |
| CC(C)(C)C[C@@H](NC(=O)C1CCC(F)(F)CC1)C(=O)N[C@H](Cc1ccccc1)C(=O)C(=O)NCc1ccccn1 [Compound 224] | 0.0258 ± 0.0013 |
| CC(C)(C)OC(=O)N1CC(NC(=O)C2CCC(F)(F)CC2)(C(=O)N[C@H](Cc2ccccc2)C(=O)C(=O)NCc2ccccn2)C1 [Compound 225] | 0.0382 ± 0.003 |
| O=C(NCc1ccccn1)C(=O)[C@@H](Cc1ccccc1)NC(=O)[C@H](NC(=O)C1CCC(F)(F)CC1)C1CCCC1 [Compound 226] | 0.016 ± 0.0008 |
| O=C(NCc1ccccn1)C(=O)[C@@H](Cc1ccccc1)NC(=O)C1(NC(=O)C2CCC(F)(F)CC2)CC(F)(F)C1 [Compound 227] | 0.019 ± 0.0003 |
| O=C(NCc1ccccn1)C(=O)[C@@H](Cc1ccccc1)NC(=O)C1(NC(=O)C2CCC(F)(F)CC2)CCOC1 (stereo partly shown) [Compound 228] | 0.0181 ± 0.0011 |
| C=C[C@@H]1C[C@]1(NC(=O)C1CCC(F)(F)CC1)C(=O)N[C@H](Cc1ccccc1)C(=O)C(=O)NCc1ccccn1 [Compound 229] | 0.0338 ± 0.001 |
| O=C(NCc1ccccn1)C(=O)[C@@H](Cc1ccccc1)NC(=O)[C@H](NC(=O)C1CCC(F)(F)CC1)C1CCOCC1 [Compound 230] | 0.0645 ± 0.0007 |
| C#CCC(NC(=O)C1CCC(F)(F)CC1)C(=O)N[C@H](Cc1ccccc1)C(=O)C(=O)NCc1ccccn1 (stereo partly shown) [Compound 231] | 0.0354 ± 0.0002 |
| CN(C)CC(NC(=O)C1CCC(F)(F)CC1)C(=O)N[C@H](Cc1ccccc1)C(=O)C(=O)NCc1ccccn1 (stereo partly shown) [Compound 232] | 0.0607 ± 0.0001 |
| O=C(NCc1ccccn1)C(=O)[C@@H](Cc1ccccc1)NC(=O)[C@@]1(NC(=O)C2CCC(F)(F)CC2)C[C@H]1C(F)F [Compound 233] | 0.0103 ± 0.0003 |
| O=C(NCc1ccccn1)C(=O)[C@@H](Cc1ccccc1)NC(=O)C1(NC(=O)C2CCC(F)(F)CC2)COC1 [Compound 234] | 0.0188 ± 0.0027 |
| O=C(NCc1ccccn1)C(=O)[C@@H](Cc1ccccc1)NC(=O)C1(NC(=O)[C@@H]2C[C@@H]3[C@H](C2)C3(F)F)CC(F)(F)C1 [Compound 235] | 0.0286 ± 0.0021 |
| O=C(CC1CCC(F)(F)CC1)N[C@H](CC1CCCCC1)C(=O)N[C@H](Cc1ccccc1)C(=O)C(=O)NCc1ccccn1 [Compound 236] | 0.0414 ± 0.0001 |
| CC(C)(C)C(NC(=O)C1CCC(F)(F)CC1)C(=O)N[C@H](Cc1ccccc1)C(=O)C(=O)NCc1ccccn1 (stereo partly shown) [Compound 237] | 0.132 ± 0.0044 |
| O=C(NCc1ccccn1)C(=O)[C@@H](Cc1ccccc1)NC(=O)C1(NC(=O)C2CCC(F)(F)CC2)CCCC1 [Compound 239] | 0.0322 ± 0.001 |
| CC(C)(O)[C@@H](NC(=O)C1CCC(F)(F)CC1)C(=O)N[C@H](Cc1ccccc1)C(=O)C(=O)NCc1ccccn1 [Compound 241] | 0.0421 ± 0.0016 |

| Compound | IC50 [µM] |
| --- | --- |
| CC(C)[C@@H](NC(=O)C1CCC(F)(F)CC1)C(=O)N[C@H](Cc1ccccc1)C(=O)C(=O)NCc1ccccn1 [Compound 242] | 0.0268 ± 0.0018 |
| O=C(NCc1ccccn1)C(=O)[C@@H](Cc1ccccc1)NC(=O)C1(NC(=O)C2CCC(F)(F)CC2)Cc2ccccc2C1 [Compound 243] | 0.0184 ± 0.0001 |
| O=C(CC1CCC(F)(F)CC1)NC1(C(=O)N[C@H](Cc2ccccc2)C(=O)C(=O)NCc2ccccn2)Cc2ccccc2C1 [Compound 244] | 0.0151 ± 0.0001 |
| CC[C@@H](NC(=O)c1ccc(F)cc1)C(=O)N[C@H](Cc1ccccc1)C(=O)C(=O)NCc1ccccn1 [Compound 246] | 0.0236 ± 0.0003 |
| CC(C)[C@@H](NC(=O)c1ccc(F)cc1)C(=O)N[C@H](Cc1ccccc1)C(=O)C(=O)NCc1ccccn1 [Compound 247] | 0.0382 ± 0.0028 |
| O=C(NCc1ccccn1)C(=O)[C@@H](Cc1ccccc1)NC(=O)C1(NC(=O)c2ccc(F)cc2)CCCC1 [Compound 248] | 0.0246 ± 0.0006 |
| O=C(NCc1ccccn1)C(=O)[C@@H](Cc1ccccc1)NC(=O)C(NC(=O)c1ccc(F)cc1)C(F)(F)F (stereo partly shown) [Compound 249] | 0.256 ± 0.0064 |
| O=C(NCc1ccccn1)C(=O)[C@@H](Cc1ccccc1)NC(=O)[C@H](NC(=O)c1ccc(F)cc1)C1CC1 [Compound 250] | 0.0424 ± 0.0024 |
| CC[C@@H](C)C(NC(=O)c1ccc(F)cc1)C(=O)N[C@H](Cc1ccccc1)C(=O)C(=O)NCc1ccccn1 (stereo partly shown) [Compound 251] | 0.0342 ± 0.0005 |
| CC(C)(C)C(NC(=O)c1ccc(F)cc1)C(=O)N[C@H](Cc1ccccc1)C(=O)C(=O)NCc1ccccn1 (stereo partly shown) [Compound 252] | 0.0949 ± 0.0027 |
| COC[C@@H](NC(=O)c1ccc(F)cc1)C(=O)N[C@H](Cc1ccccc1)C(=O)C(=O)NCc1ccccn1 [Compound 253] | 0.0224 ± 0.0014 |
| NC(=O)C[C@@H](NC(=O)c1ccc(F)cc1)C(=O)N[C@H](Cc1ccccc1)C(=O)C(=O)NCc1ccccn1 [Compound 254] | 0.0455 ± 0.0031 |
| CC(C)(C)OC(=O)NCC(C)(C)C(=O)N[C@H](Cc1ccccc1)C(=O)C(=O)NCc1ccccn1 [Compound 255] | 0.111 ± 0.0041 |
| O=C(NCc1ccccn1)C(=O)[C@@H](Cc1ccccc1)NC(=O)C1[C@H]2CCC[C@H]2CN1C(=O)c1cc2cc(Cl)ccc2o1 (stereo partly shown) [Compound 256] | 0.0205 ± 0.0017 |
| O=C(NCc1ccccn1)C(=O)[C@@H](Cc1ccccc1)NC(=O)[C@@H]1[C@H]2CCC[C@H]2CN1C(=O)COc1ccc(Cl)c(Cl)c1 [Compound 257] | 0.0718 ± 0.0001 |
| O=C(NCc1ccccn1)C(=O)[C@@H](Cc1ccccc1)NC(=O)[C@@H]1[C@H]2CCC[C@H]2CN1C(=O)NC1CCCCC1 [Compound 258] | 0.0932 ± 0.0006 |
| O=C(NCc1ccccn1)C(=O)[C@@H](Cc1ccccc1)NC(=O)[C@@H]1[C@H]2CCC[C@H]2CN1C(=O)CC1CCC(F)(F)CC1 [Compound 259] | 0.0214 ± 0.0035 |
| O=C(NCc1ccccn1)C(=O)[C@@H](Cc1ccccc1)NC(=O)[C@@H]1[C@H]2CCC[C@H]2CN1C(=O)c1cnccn1 [Compound 260] | 0.742 ± 0.0063 |
| O=C(NCc1ccccn1)C(=O)[C@@H](Cc1ccccc1)NC(=O)[C@@H]1[C@H]2CCC[C@H]2CN1C(=O)[C@@H](NC(=O)c1cnccn1)C1CCCCC1 [Compound 261] | 0.8636 ± 0.0001 |
| CC1(C)[C@@H]2[C@@H](C(=O)N[C@H](Cc3ccccc3)C(=O)C(=O)NCc3ccccn3)N(C(=O)C3CCC(F)(F)CC3)C[C@@H]21 [Compound 262] | 0.9337 ± 0.005 |
